Cc1nc2n(c(=O)c1CCN1CCC(c3noc4cc(F)ccc34)CC1)CCCC2
solubility (mole fraction)
Conditions | 278.15 K | 283.15 K | 288.15 K | 293.15 K | 298.15 K | 303.15 K | 308.15 K | 313.15 K | 318.15 K | 323.15 K
in acetone | 0.00085 | 0.00095 | 0.00127 | 0.00143 | 0.00175 | 0.00219 | 0.00284 | 0.00336 | 0.00417 | 0.00507
in cumene | 0.00122 | 0.00147 | 0.00207 | 0.00219 | 0.0026 | 0.00309 | 0.00376 | 0.00481 | 0.00552 | 0.0066
in ethanol | 0.00096 | 0.00108 | 0.00131 | 0.00153 | 0.00201 | 0.00248 | 0.0033 | 0.00415 | 0.0051 | 0.00677
in ethyl acetate | 0.00116 | 0.00128 | 0.00167 | 0.00185 | 0.00216 | 0.00263 | 0.00331 | 0.00397 | 0.00485 | 0.0058
in isopropanol | 0.00036 | 0.00046 | 0.0006 | 0.0007 | 0.00103 | 0.00136 | 0.00203 | 0.00253 | 0.0032 | 0.00447
in methanol | 0.00202 | 0.0023 | 0.00272 | 0.00329 | 0.00396 | 0.00487 | 0.00615 | 0.0077 | 0.0099 | 0.0128
in n-butanol | 0.00152 | 0.00173 | 0.0022 | 0.00263 | 0.00347 | 0.00443 | 0.00593 | 0.00753 | 0.00963 | 0.0124
in n-propanol | 0.00139 | 0.00155 | 0.00197 | 0.00238 | 0.00305 | 0.00381 | 0.00517 | 0.00651 | 0.00839 | 0.0109
in toluene | 0.0038 | 0.00418 | 0.00521 | 0.00559 | 0.00667 | 0.008 | 0.00998 | 0.0117 | 0.014 | 0.0167

From BigSolDB 2.1
